Source: patent US10975051B2, “Phenylsulfonamido-benzofuran derivatives and uses thereof in the treatment of proliferative diseases” (Memorial Sloan-Kettering Cancer Center, priority 2015, dated 2021)

How the values were obtained:
BCL-W = biological target: T1, BCL-W (Homo sapiens, UniProt Q92843); conditions: Oltersdorf et al., Nature, 2005; cited from earlier work
T1 sequence (Q92843 1-193): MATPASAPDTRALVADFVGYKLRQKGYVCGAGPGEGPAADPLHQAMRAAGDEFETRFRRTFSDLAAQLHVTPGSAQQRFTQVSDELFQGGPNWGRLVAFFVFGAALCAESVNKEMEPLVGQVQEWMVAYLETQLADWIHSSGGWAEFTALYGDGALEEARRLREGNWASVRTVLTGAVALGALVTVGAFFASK

MCL-1 = MCL-1 (Homo sapiens, UniProt Q07820); conditions: background statement; cited from earlier work
BCL-2 = BCL-2 (Homo sapiens, UniProt P10415); conditions: Oltersdorf et al., Nature, 2005; cited from earlier work
BCL-XL = BCL-XL (Homo sapiens, UniProt Q07817); conditions: Oltersdorf et al., Nature, 2005; cited from earlier work
[1] = tested on: MCL-1-addicted cancer cell-line, H23; experiment: apoptosis induction in MCL-1-addicted cancer cell line H23; format: cell-based; conditions: H23 cells; for induction of apoptosis: FIG. 1B
[2] = tested on: DMS53, SW1417, and H82 cell lines; experiment: apoptotic induction in DMS53, SW1417 and H82 cell lines (selectively addicted to BCL-2, BCL-XL and MCL-1); format: cell-based; conditions: H82 versus DMS53 and SW1417, FIG. 2B
[3] = tested on: MCL-1-addicted cancer cell-line H82; experiment: apoptosis induction in MCL-1-addicted cancer cell line H82; format: cell-based; conditions: H82 cells, FIG. 1B

Chain of BCL-XL (Q07817 whole entry, species assumed): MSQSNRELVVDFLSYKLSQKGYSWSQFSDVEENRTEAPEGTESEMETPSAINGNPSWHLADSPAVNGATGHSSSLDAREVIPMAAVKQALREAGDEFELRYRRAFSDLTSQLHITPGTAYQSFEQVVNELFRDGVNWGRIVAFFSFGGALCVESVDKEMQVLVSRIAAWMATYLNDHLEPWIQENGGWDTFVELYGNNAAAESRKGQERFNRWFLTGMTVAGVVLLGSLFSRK
Chain of BCL-2 (P10415 whole entry, species assumed): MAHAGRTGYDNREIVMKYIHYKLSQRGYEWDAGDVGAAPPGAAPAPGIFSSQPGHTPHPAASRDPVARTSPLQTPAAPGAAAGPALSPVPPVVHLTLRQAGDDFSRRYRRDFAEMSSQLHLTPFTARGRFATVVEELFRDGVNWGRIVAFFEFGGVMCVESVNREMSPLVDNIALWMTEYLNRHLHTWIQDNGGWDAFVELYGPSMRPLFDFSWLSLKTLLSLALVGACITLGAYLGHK
Chain of MCL-1 (Q07820 whole entry, species assumed): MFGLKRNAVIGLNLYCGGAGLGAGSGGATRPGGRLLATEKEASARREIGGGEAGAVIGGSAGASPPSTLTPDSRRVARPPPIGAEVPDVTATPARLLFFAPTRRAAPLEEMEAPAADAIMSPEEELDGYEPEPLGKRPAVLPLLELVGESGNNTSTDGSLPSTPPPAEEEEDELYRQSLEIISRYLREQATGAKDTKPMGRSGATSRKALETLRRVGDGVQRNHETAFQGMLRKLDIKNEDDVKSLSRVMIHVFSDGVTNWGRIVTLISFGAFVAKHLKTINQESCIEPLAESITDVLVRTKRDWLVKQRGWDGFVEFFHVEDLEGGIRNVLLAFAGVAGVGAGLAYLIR

Row | EC50 ([1]; Homo sapiens, NCI-H23, FIG. 1A, read-out: EC50 of inducing apoptosis) [nM] | Compound | binding affinity to BCL-W (BCL-W) | inhibition of MCL-1 (MCL-1) | binding affinity to BCL-2 (BCL-2) | binding affinity to BCL-XL (BCL-XL) | induction of apoptosis ([1]; 1 µM of compound) | induction of apoptosis ([1]; 1 μM of compound) | selectivity of apoptosis induction in MCL-1 addicted cancer cell line over BCL-2 or BCL-XL addicted cancer cell lines [2] | induction of apoptosis ([3]; 1 µM of compound) | induction of apoptosis ([3]; 1 μM of compound)
1 |  | CC1(C)CCC(c2ccc(Cl)cc2)=C(CN2CCN(c3ccc(C(=O)NS(=O)(=O)c4ccc(N[C@H](CCN5CCOCC5)CSc5ccccc5)c(S(=O)(=O)C(F)(F)F)c4)cc3)CC2)C1 [ABT-263] | high affinity | do not inhibit | high affinity | high affinity |  |  |  |  | 
2 |  | CN(C)CC[C@H](CSc1ccccc1)Nc1ccc(S(=O)(=O)NC(=O)c2ccc(N3CCN(Cc4ccccc4-c4ccc(Cl)cc4)CC3)cc2)cc1[N+](=O)[O-] [ABT-737, (R)-4-(4-((4′-chloro-[1,1′-biphenyl]-2-yl)methyl)piperazin-1-yl)-N-((4-((−4-(dimethylamino)-1-(phenylthio)butan-2-yl)amino)-3-nitrophenyl)sulfonyl)benzamide] | high affinity | do not inhibit | high affinity | high affinity |  |  |  |  | 
3 | 600 | CCOC(=O)c1c(C)oc2cc(Br)c(NS(=O)(=O)c3ccc(OC)cc3)cc12 [Compound 1] |  |  |  |  | robust apoptosis | robust apoptosis | selectively induce apoptosis | robust apoptosis | robust apoptosis
